The source of these data is patent publication EP4790066A1, “GLP-1R/GIPR/GCGR TRIPLE AGONIST ANALOGUE AND USE THEREOF” (Shenzhen Bay Laboratory, priority 2023, dated 2025).

What all share (format): cell-based
For one assay, the target named is T1, GCGR (Homo sapiens, UniProt P47871).
T1 construct: expressed in transfected cells
Kind of assay: CreLuc method (CRE-luciferase reporter), 293HEK/pGM-CREB-L-Luc/GCGR pool. The note with it: 6 h incubation, read-out: EC50 (pM) for each receptor GCGR. As for the experimental part: (§1) 1. Insulinotropic analogues can bind to the target receptor on the cell membrane, activate the cAMP response element (CRE), and initiate the expression of downstream luciferase. The expression level is positively correlated with the biological activity of the analogue being tested. After activation, luciferase substrate is added for chemiluminescence detection, and the luminescence intensity is determined to characterize the biological activity of the test compounds. Therefore, the target peptide derivatives (or polypeptide derivatives, i.e., TG1-TG94) prepared in Example 1 and Example 2 can be tested by the CreLuc method. The specific steps are as follows: The stably transfected cell lines HEK293/pGM-CREB-L-Luc/GLP-1R pool, HEK293/pGM-CREB-L-Luc/GIPR pool, and 293HEK/pGM-CREB-L-Luc/GCGR pool were constructed. […] The corresponding test cells were digested (1 min), dispersed by pipetting, and centrifuged (1000 rpm, 5 min). The culture medium was discarded, and the cells were resuspended in freestyle medium, centrifuged again, collected, and counted. The cells were then diluted to a cell density of 5 x 10^5 cells/mL and then added to the detection wells of a 384-well plate (40 µL/20,000 cells/well). Echo was used to add the corresponding analyte dilution series. The cell plate was incubated at 37°C and 5% CO2 for 6 h, then ONE-GLO (20 µL/well) was added for detection. It was kept in the dark for 3 min, then a chemiluminescent microplate reader was used for determination. The plate was read within 30 min, and the determination results were recorded. […] Table 3: EC50 values for target peptide derivatives

In another assay the target is T2, GLP-1R (Homo sapiens, UniProt P43220).
T2 construct: expressed in transfected cells
Kind of assay: CreLuc method (CRE-luciferase reporter), HEK293/pGM-CREB-L-Luc/GLP-1R pool. Particulars: 6 h incubation, read-out: EC50 (pM) for each receptor GLP-1R. As for the experimental part: as §1

The target of another assay is T3, GIPR (Homo sapiens, UniProt P48546).
T3 construct: expressed in transfected cells
T3 sequence (P48546 22-466): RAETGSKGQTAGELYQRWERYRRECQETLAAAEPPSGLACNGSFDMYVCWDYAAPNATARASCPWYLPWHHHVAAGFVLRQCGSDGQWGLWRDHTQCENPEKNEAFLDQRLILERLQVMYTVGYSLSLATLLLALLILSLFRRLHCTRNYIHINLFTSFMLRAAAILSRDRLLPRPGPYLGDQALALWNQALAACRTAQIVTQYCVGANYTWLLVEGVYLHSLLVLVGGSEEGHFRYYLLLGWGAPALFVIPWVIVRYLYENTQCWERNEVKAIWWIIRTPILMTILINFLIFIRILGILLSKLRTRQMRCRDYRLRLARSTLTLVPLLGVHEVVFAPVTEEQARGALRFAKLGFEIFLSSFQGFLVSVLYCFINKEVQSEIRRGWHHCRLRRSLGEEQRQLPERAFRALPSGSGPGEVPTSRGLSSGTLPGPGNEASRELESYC
The experiment in a line: CreLuc method (CRE-luciferase reporter), HEK293/pGM-CREB-L-Luc/GIPR pool. Particulars: 6 h incubation, read-out: EC50 (pM) for each receptor GIPR. How it is done:
as §1

*1 amine or outer side, *2 acyl side, *3 side chain or, on linkers, in order; H or OH if unused. Where a SMILES comes first, the peptide text is derived from it. Bridges are numbered along the chain shown (N, C = ends). [ ]: non-standard residue; d: D form. X1 = O=C(O)CCCCCCCCCCCCCCCCCCC(=O)N[C@@H](CCCCNC(=O)COCCOCCNC(=O)COCCOCCNC(=O)CCC(=O)N(CCNC(=O)C[*:1])CCNC(=O)C[*:2])C(=O)O; tBuAla = CC(C)(C)C[C@H](N)C(=O)O; αMeL = CC(C)C[C@](C)(N)C(=O)O; Dab = NCC[C@H](N)C(=O)O; Aib = CC(C)(N)C(=O)O

T1 sequence (P47871 26-477, species assumed): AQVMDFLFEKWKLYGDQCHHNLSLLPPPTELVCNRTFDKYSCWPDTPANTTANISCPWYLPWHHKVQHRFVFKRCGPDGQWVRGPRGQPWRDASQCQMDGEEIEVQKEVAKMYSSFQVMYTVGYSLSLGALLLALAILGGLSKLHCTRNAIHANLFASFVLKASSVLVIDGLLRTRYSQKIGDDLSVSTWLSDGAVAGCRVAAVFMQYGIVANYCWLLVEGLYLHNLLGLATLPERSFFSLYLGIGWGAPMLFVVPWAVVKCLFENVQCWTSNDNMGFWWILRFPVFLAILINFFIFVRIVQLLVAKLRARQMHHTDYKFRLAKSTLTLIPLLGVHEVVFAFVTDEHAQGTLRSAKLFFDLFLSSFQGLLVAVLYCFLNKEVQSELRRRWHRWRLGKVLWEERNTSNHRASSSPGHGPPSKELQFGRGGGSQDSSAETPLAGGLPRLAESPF
T2 sequence (P43220 24-463, species assumed): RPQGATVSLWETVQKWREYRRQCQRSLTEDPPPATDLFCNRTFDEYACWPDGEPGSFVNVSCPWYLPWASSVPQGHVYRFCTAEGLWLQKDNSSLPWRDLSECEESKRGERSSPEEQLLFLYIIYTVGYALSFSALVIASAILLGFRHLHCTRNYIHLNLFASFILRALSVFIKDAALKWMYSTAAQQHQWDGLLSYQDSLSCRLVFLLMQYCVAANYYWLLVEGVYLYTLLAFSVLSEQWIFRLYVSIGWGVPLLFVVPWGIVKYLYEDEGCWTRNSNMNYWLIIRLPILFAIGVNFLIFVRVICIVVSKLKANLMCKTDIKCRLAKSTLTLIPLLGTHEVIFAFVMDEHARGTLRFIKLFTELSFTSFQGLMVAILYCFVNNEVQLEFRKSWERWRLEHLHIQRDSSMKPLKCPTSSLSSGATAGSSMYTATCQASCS

As to `CC[C@H](C)[C@@H]1NC(=O)[C@H](Cc2ccccc2)NC(=O)[C@@H](NC(=O)[C@H](CCC(N)=O)NC(=O)[C@H](CCC(N)=O)NC(=O)[C@H](C)NC(=O)[C@H](CCCCNC(C)=O)NC(=O)[C@H](CCCCN)NC(=O)[C@H](CC(=O)O)NC(=O)[C@H](CC(C)C)NC(=O)[C@](C)(CC(C)C)NC(=O)[C@@H](NC(=O)[C@H](CO)NC(=O)[C@H](Cc2ccc(O)cc2)NC(=O)[C@H](CC(=O)O)NC(=O)[C@H](CO)NC(=O)[C@@H](NC(=O)[C@H](Cc2ccccc2)NC(=O)[C@@H](NC(=O)CNC(=O)[C@H](CCC(N)=O)NC(=O)C(C)(C)NC(=O)[C@@H](N)Cc2ccc(O)cc2)[C@@H](C)O)[C@@H](C)O)[C@@H](C)CC)CSCC(=O)NCCN(C(=O)CCC(=O)NCCOCCOCC(=O)NCCOCCOCC(=O)NCCCC[C@H](NC(=O)CCCCCCCCCCCCCCCCCCC(=O)O)C(=O)O)CCNC(=O)CSC[C@@H](C(=O)NCC(=O)NCC(=O)N2CCC[C@H]2C(=O)N[C@@H](CO)C(=O)N[C@@H](CO)C(=O)NCC(=O)N[C@@H](C)C(=O)N2CCC[C@H]2C(=O)N2CCC[C@H]2C(=O)N2CCC[C@H]2C(=O)N[C@@H](CO)C(N)=O)NC(=O)[C@H](CC(C)C)NC(=O)[C@H](CC(C)C)NC(=O)[C@H](Cc2ccc(O)cc2)NC(=O)[C@H](CCC(=O)O)NC1=O` [TG33] (H-Y[Aib]QGTFTSDYSI[αMeL]LDKK(Ac)AQQCFIEYLLCGGPSSGAPPPS-NH2; linker 21-28 via X1), the EC50 was 96.8 pM at GCGR, 23.7 pM on GLP-1R and 7.6 pM at GIPR.

As to `CC[C@H](C)[C@@H]1NC(=O)[C@H](Cc2ccccc2)NC(=O)[C@@H](NC(=O)C(C)(C)NC(=O)[C@H](CCC(N)=O)NC(=O)[C@H](C)NC(=O)[C@H](CCCCNC(C)=O)NC(=O)[C@H](CCCCN)NC(=O)[C@H](CCC(=O)O)NC(=O)[C@H](CC(C)C)NC(=O)[C@](C)(CC(C)C)NC(=O)[C@@H](NC(=O)[C@H](CO)NC(=O)[C@H](Cc2ccc(O)cc2)NC(=O)[C@H](CC(=O)O)NC(=O)[C@H](CO)NC(=O)[C@@H](NC(=O)[C@H](Cc2ccccc2)NC(=O)[C@@H](NC(=O)CNC(=O)[C@H](CCC(N)=O)NC(=O)C(C)(C)NC(=O)[C@@H](N)Cc2ccc(O)cc2)[C@@H](C)O)[C@@H](C)O)[C@@H](C)CC)CSCC(=O)NCCN(C(=O)CCC(=O)NCCOCCOCC(=O)NCCOCCOCC(=O)NCCCC[C@H](NC(=O)CCCCCCCCCCCCCCCCCCC(=O)O)C(=O)O)CCNC(=O)CSC[C@@H](C(=O)NCC(=O)NCC(=O)N2CCC[C@H]2C(=O)N[C@@H](CO)C(=O)N[C@@H](CO)C(=O)NCC(=O)N[C@@H](C)C(=O)N2CCC[C@H]2C(=O)N2CCC[C@H]2C(=O)N2CCC[C@H]2C(=O)N[C@@H](CO)C(N)=O)NC(=O)[C@H](CC(C)C)NC(=O)[C@H](CC(C)C)NC(=O)[C@H](Cc2ccc(O)cc2)NC(=O)[C@H](CCC(=O)O)NC1=O` [TG36], the EC50 was 813 pM on GCGR, 34.1 pM on GLP-1R and 10.8 pM at GIPR.

As for `CC(=O)NCCCC[C@H](NC(=O)[C@H](CCC(=O)O)NC(=O)[C@H](CC(C)C)NC(=O)[C@H](Cc1ccc(O)cc1)NC(=O)[C@H](CCCCN)NC(=O)[C@H](CO)NC(=O)[C@H](Cc1ccc(O)cc1)NC(=O)[C@H](CC(=O)O)NC(=O)[C@H](CO)NC(=O)[C@@H](NC(=O)[C@H](Cc1ccccc1)NC(=O)[C@@H](NC(=O)CNC(=O)[C@H](Cc1c[nH]cn1)NC(=O)C(C)(C)NC(=O)[C@@H](N)Cc1c[nH]cn1)[C@@H](C)O)[C@@H](C)O)C(=O)N[C@@H](CCCCN)C(=O)N[C@@H](Cc1ccc(O)cc1)C(=O)N[C@@H](C)C(=O)NC(C)(C)C(=O)N[C@H]1CSCC(=O)NCCN(C(=O)CCC(=O)NCCOCCOCC(=O)NCCOCCOCC(=O)NCCCC[C@H](NC(=O)CCCCCCCCCCCCCCCCCCC(=O)O)C(=O)O)CCNC(=O)CSC[C@@H](C(=O)NCC(=O)NCC(=O)N2CCC[C@H]2C(=O)N[C@@H](CO)C(=O)N[C@@H](CO)C(=O)NCC(=O)N[C@@H](C)C(=O)N2CCC[C@H]2C(=O)N2CCC[C@H]2C(=O)N2CCC[C@H]2C(=O)N[C@@H](CO)C(N)=O)NC(=O)[C@H](CC(C)C)NC(=O)[C@H](CC(C)C)NC(=O)[C@H](Cc2c[nH]c3ccccc23)NC(=O)[C@H](CCC(N)=O)NC(=O)[C@H](C(C)C)NC(=O)[C@H](Cc2ccccc2)NC1=O` [TG14] (H-H[Aib]HGTFTSDYSKYLEK(Ac)KYA[Aib]CFVQWLLCGGPSSGAPPPS-NH2; linker 21-28 via X1), the EC50 on GCGR was determined as 277 pM; at GLP-1R, 311 pM; on GIPR, 752 pM.

As for `CC[C@H](C)[C@@H]1NC(=O)[C@H](Cc2ccccc2)NC(=O)[C@@H](NC(=O)C(C)(C)NC(=O)[C@H](CCC(N)=O)NC(=O)[C@H](C)NC(=O)[C@H](CCCCNC(C)=O)NC(=O)[C@H](CCCCN)NC(=O)[C@H](CC(=O)O)NC(=O)[C@H](CC(C)(C)C)NC(=O)[C@](C)(CC(C)C)NC(=O)[C@@H](NC(=O)[C@H](CO)NC(=O)[C@H](Cc2ccc(O)cc2)NC(=O)[C@H](CC(=O)O)NC(=O)[C@H](CO)NC(=O)[C@@H](NC(=O)[C@H](Cc2ccccc2)NC(=O)[C@@H](NC(=O)CNC(=O)[C@H](CCC(N)=O)NC(=O)C(C)(C)NC(=O)[C@@H](N)Cc2ccc(O)cc2)[C@@H](C)O)[C@@H](C)O)[C@@H](C)CC)CSCC(=O)NCCN(C(=O)CCC(=O)NCCOCCOCC(=O)NCCOCCOCC(=O)NCCCC[C@H](NC(=O)CCCCCCCCCCCCCCCCCCC(=O)O)C(=O)O)CCNC(=O)CSC[C@@H](C(=O)NCC(=O)NCC(=O)N2CCC[C@H]2C(=O)N[C@@H](CO)C(=O)N[C@@H](CO)C(=O)NCC(=O)N[C@@H](C)C(=O)N2CCC[C@H]2C(=O)N2CCC[C@H]2C(=O)N2CCC[C@H]2C(=O)N[C@@H](CO)C(N)=O)NC(=O)[C@H](CC(C)C)NC(=O)[C@H](CC(C)C)NC(=O)[C@H](Cc2ccc(O)cc2)NC(=O)[C@H](CCC(=O)O)NC1=O` [TG26] (H-Y[Aib]QGTFTSDYSI[αMeL][tBuAla]DKK(Ac)AQ[Aib]CFIEYLLCGGPSSGAPPPS-NH2; linker 21-28 via X1), the EC50 on GCGR is 360 pM; at GLP-1R it was 149 pM; on GIPR it was 59.4 pM.

In the case of `CC[C@H](C)[C@@H]1NC(=O)[C@H](Cc2ccccc2)NC(=O)[C@@H](NC(=O)C(C)(C)NC(=O)[C@H](CCC(N)=O)NC(=O)[C@H](C)NC(=O)[C@H](CCCCNC(C)=O)NC(=O)[C@H](CCCCN)NC(=O)[C@H](CC(=O)O)NC(=O)[C@H](CC(C)C)NC(=O)[C@](C)(CC(C)C)NC(=O)[C@@H](NC(=O)[C@H](CO)NC(=O)[C@H](Cc2ccc(O)cc2)NC(=O)[C@H](CC(=O)O)NC(=O)[C@H](CO)NC(=O)[C@@H](NC(=O)[C@H](Cc2ccccc2)NC(=O)[C@@H](NC(=O)CNC(=O)[C@H](CCNC(C)=O)NC(=O)C(C)(C)NC(=O)[C@@H](N)Cc2ccc(O)cc2)[C@@H](C)O)[C@@H](C)O)[C@@H](C)CC)CSCC(=O)NCCN(C(=O)CCC(=O)NCCOCCOCC(=O)NCCOCCOCC(=O)NCCCC[C@H](NC(=O)CCCCCCCCCCCCCCCCCCC(=O)O)C(=O)O)CCNC(=O)CSC[C@@H](C(=O)NCC(=O)NCC(=O)N2CCC[C@H]2C(=O)N[C@@H](CO)C(=O)N[C@@H](CO)C(=O)NCC(=O)N[C@@H](C)C(=O)N2CCC[C@H]2C(=O)N2CCC[C@H]2C(=O)N2CCC[C@H]2C(=O)N[C@@H](CO)C(N)=O)NC(=O)[C@H](CC(C)C)NC(=O)[C@H](CC(C)C)NC(=O)[C@H](Cc2ccc(O)cc2)NC(=O)[C@H](CCC(=O)O)NC1=O` [TG41] (H-Y[Aib][Dab](Ac)GTFTSDYSI[αMeL]LDKK(Ac)AQ[Aib]CFIEYLLCGGPSSGAPPPS-NH2; linker 21-28 via X1), the EC50 on GCGR amounted to 76.3 pM; at GLP-1R it was 282 pM; on GIPR it was 19.6 pM.
